Key:
[1] = tested on: Thy1+ neonatal cardiac fibroblasts from α-MHC-GFP transgenic mice; assay: Drug screening of GMT cardiac reprogramming, α-MHC-GFP reporter, high-content imaging; format: cell-based, mouse; conditions: compounds added day 1, read-out 2 weeks
Source text: To identify biological pathways that could be manipulated to improve cardiac reprogramming, a chemical biology approach involving an unbiased small molecule library screen was used. Cardiac reprogramming was induced with the recently described polycistronic GMT retrovirus Mef2c-P2A-Gata4-T2A-Tbx5 to ensure that each of the three transcription factors are optimally expressed, as described in detail in Wang et al. (2015) Circ. Res. 116:237-244.
Briefly, mouse cardiac fibroblasts (CF) were isolated from PO-P4 αMHC-GFP transgenic neonates using the migration method as previously described. Burridge et al. (2012) Cell Stem Cell 10:16-28; Ieda et al. (2010) Cell 142:375-386. Hearts were isolated, minced, and onto gelatin-coated plates and incubated in fibroblast explant media (20% FBS in IMOM) for one week at 37° C. The tissue was washed with 2×PBS, digested in 0.05% Trypsin for 5 minutes, and resuspended in fibroblast explant media. Tissues were filtered through a […] filter and pelleted. Pelleted cells were stained for 20 minutes with Thy-1-APC (anti-mouse/rat CD90.1 thy-1.1) (Ebioscience, San Diego, Calif., USA) and washed 2× with PBS as previously described. Ieda et al. (2010) Cell 142:375-386. Cells were sorted for APC^+ cells by fluorescence activated cell sorting (FACS) and plated onto 10 cm gelatin-coated plates and used fresh for all studies without freezing.
Direct conversion of Thy1^+ CFs to iCMs was completed as previously described in Ieda et al. (2010) Cell 142:375-386. Briefly, pMXs-Gata4, pMXs-Mef2c, pMXs-Tbx5, polycistronic pMXs-Mef2c-Gata4-Tbx5 (GMT polycistronic) or pMXs-dsRed were constructed as previously described. Ieda et al. (2010) Cell 142:375-386; Wang, L., et al. (2015) Circ Res 116, 237-244 (2015). Retroviral vectors were packaged using Fugene HD (Roche) and delivered in OptiMEM (10 μg) to 15-cm plates containing ˜80% confluent PlatE cells in fibroblast explant media, as previously described. Qian, L., et al. (2012) Nature 485, 593-59. Viral supernatant was collected 48 hours post-transfection and used to infect cardiac fibroblasts with the addition of 0.6 μg/ml polybrene (Chemicon) and added to cardiac fibroblasts at day −1. After 24 hours, the culture medium was replaced with cardiomyocyte culture medium (iCM medium (Qian, L., et al. (2013) Nature Protocols 8: 1204-1215)) at day 0, and replaced every 3-4 days. Three separate Gata4, Mef2c, and Tbx5 retroviruses were used in the initial drug screening and the in vivo experiments; however for further in vitro experiments following the initial screening the GMT polycistronic retrovirus was used.
For drug screening, Thy1^+ neonatal cardiac fibroblasts from α-MHC-GFP transgenic mice were plated in 384-well plates at a density of 2000 cells/well. Cells were reprogrammed with the GMT retrovirus as described above. At day 1 of reprogramming, the virus was replaced with iCM medium and the compounds were added to the wells using a Biomek liquid-handling robotic station to achieve a 1:1000 dilution of the drug-library concentration. Libraries of 5500 toxicologically tested compounds (e.g., LOPAC, TOCRIS, LONZA, and […]) were screened. At day 14 of reprogramming, the plates were fixed and stained for GFP and Troponin T as described under immunocytochemistry and imaged using high-throughput, high-content imaging with an INCELL system. Data were analyzed using the INCELL image-analysis package.
For immunocytochemical analysis and quantification, samples were fixed using 4% paraformaldehyde (PFA), washed twice in PBS containing 0.1% Triton X-100 (PBST), and blocked with Power Block Universal Blocking Reagent (Biogenex, # HK085-5K) for 15 minutes at room temperature as previously described. Qian et al. (2013) Nature protocols 8:1204-1215. Samples were incubated in a mixture containing primary antibodies diluted in PBST and blocking buffer (1:1) and incubated at 4° C. overnight.

cardiac fibroblasts = assay: Activation or knockdown of TGF-β/WNT signaling during GMT reprogramming; format: cell-based, mouse; conditions: added during GMT reprogramming
Source text: It was also observed that activating TGF-β or canonical WNT signaling reversed the reprogramming efficiency gains induced by SB431542 or XAV939, respectively. […] Moreover, overexpression of constitutively active SMAD2 or SMAD3 (TGF-β signaling effectors) abolished cardiac reprogramming enhancement by SB431542 (FIG. 15). […] An ˜80% reduction of ALK4 or ALK5 (FIG. 16) enhanced direct cardiac reprogramming, similar to SB431542 (FIG. 16). […] Thus, SB431542 and XAV939 enhance cardiac reprogramming by inhibiting TGF-β and canonical WNT signaling.

[2] = tested on: cardiac and fibroblast genes; assay: qRT-PCR panel of cardiac and fibroblast genes during GMT reprogramming; format: cell-based, mouse; conditions: 2 weeks of reprogramming
Experimental: To identify which of the WNT or TGF-β inhibitor compounds most effectively improve reprogramming quality, qRT-PCR was performed for a panel of cardiac and fibroblast genes. Briefly, total RNA was isolated with a commercial kit (Direct-Zol RNA Mini-prep, Zymo Research). Reverse transcription was carried out using a mixture of oligo(dT) and random hexamer primers (SuperScript III First-Strand Synthesis SuperMix for qRT-PCR, ThermoFisher Scientific). Real-time PCR Analysis was conducted with the 7900HT FAST real-time PCR detection system (Applied Biosystems). For high-throughput, real-time PCR analysis, samples were analyzed with the 96.96 Dynamic Array IFC on the Biomark HD system (Fluidigm).

[3] = tested on: mouse cardiac fibroblasts; assay: GMT reprogramming efficiency, α-MHC-GFP+ iCMs (dose, timing, FACS); format: cell-based
[4] = tested on: mouse cardiac fibroblasts; assay: Appearance of beating cells, Troponin T staining and sarcomere organization in iCMs; format: cell-based; conditions: after GMT infection
Experimental: For immunocytochemical analysis and quantification, samples were fixed using 4% paraformaldehyde (PFA), washed twice in PBS containing 0.1% Triton X-100 (PBST), and blocked with Power Block Universal Blocking Reagent (Biogenex, # HK085-5K) for 15 minutes at room temperature as previously described. Qian et al. (2013) Nature protocols 8:1204-1215. Samples were incubated in a mixture containing primary antibodies diluted in PBST and blocking buffer (1:1) and incubated at 4° C. overnight. The following primary antibodies were used: troponin T, cardiac isoform Ab-1, mouse monoclonal antibody (Thermo Scientific # MS-295-PO, 1:200), monoclonal anti-α-actinin sarcomeric antibody (Sigma Aldrich # A7811, 1/200), and anti-GFP (Thermo Scientific # A11120, 1:200). Samples were washed twice with PBST for 15 minutes each at room temperature and then incubated in a mixture containing secondary antibodies diluted in PBST and blocking buffer (1:1) at room temperature for 1 hour. Samples were washed three times with PBST for 15 minutes each at room temperature and visualized. Stained cells were quantified with ImageJ Imaging Analysis Software. The standard error mean was calculated for all comparisons; p<0.05 was considered statistically significant. […]

SMAD2/3 = assay: Western blot, phosphorylation of SMAD2/3; format: cell-based
Experimental: (§1) Next, the mechanisms by which the small molecules regulate TGF-β and WNT signaling were investigated. Proteins from cell lysates containing 20 μg of protein were separated by SDS-PAGE and electrophoretically transferred onto polyvinylidene difluoride membranes (BioRad). Membranes were then washed in PBS, treated with blocking buffer (Li-cor), and then incubated with primary antibodies at 4° C. overnight. The following primary antibodies were used: anti-GAPDH antibody loading control (Abcam # ab9484, 0.5 μg/ml), anti-Active β-Catenin antibody (Millipore #05-665, 1:1000), anti-T-Antigen (Abcam # ab16879, 1:1000), and anti-phospho-Smad2/3 (Cell Signaling #8685S, 1:1000). Membranes were washed in PBS and incubated with the appropriate secondary antibodies (Li-Cor, IRDye […]; IRDye 800CW, 1:10,000) for 1 hour at room temperature. Membranes were washed and visualized with an Odyssey Fc Dual-mode Imaging System.

active β catenin = assay: Western blot, active β catenin; format: cell-based
Experimental: as §1

| Molecule | hit in drug screen (Z score over 5) [1] | effect on reprogramming enhanced by SB431542 and XAV939 (cardiac fibroblasts) | other results |
| --- | --- | --- | --- |
| c1ccc2c(-c3cnn4cc(-c5ccc(N6CCNCC6)cc5)cnc34)ccnc2c1 [LDN-193189] | top hits |  |  |
| CN1C(C(=O)Nc2ccccn2)=C(O)c2ccccc2S1(=O)=O [piroxicam] | top hits |  |  |
| Cc1c[nH]c(-c2cnc(NCCNc3ccc(C#N)cn3)nc2-c2ccc(Cl)cc2Cl)n1 [CHIR99021] |  | reversed the combined effect |  |
| NC(=O)c1ccc(-c2nc(-c3ccc4c(c3)OCCO4)c(-c3ccccn3)[nH]2)cc1 [D4476] | top hits |  |  |
| NC(=O)c1ccc(-c2nc(-c3ccc4c(c3)OCO4)c(-c3ccccn3)[nH]2)cc1 [SB431542] | top hits |  | downregulating fibroblast gene expression ([2]; among TGF-β inhibitors): most efficient of the TGF-β inhibitors; timing of addition for reprogramming efficiency ([3]; GMT, SB431542 2.6 μM): most effective if added at day 1; appearance of beating cells [4]: 3 weeks; phosphorylation of SMAD2/3 (indicator of TGF-β activation) (SMAD2/3): significantly reduced |
| O=C(Nc1cccc2cccnc12)c1ccc(N2C(=O)[C@@H]3[C@H](C2=O)[C@@H]2C=C[C@H]3C2)cc1 [IWR1] | top hits |  |  |
| activin |  |  | effect on reprogramming enhanced by SB431542 (cardiac fibroblasts): did not have a significant effect |
| Oc1nc(-c2ccc(C(F)(F)F)cc2)nc2c1CSCC2 [XAV939] | top hits |  | activating cardiac gene expression ([2]; among WNT inhibitors): most efficient of the WNT inhibitors; most effective dose ([3]; GMT reprogramming efficiency): 5 µM; effect of time of addition on enhancement ([3]; GMT, XAV939): same enhancement effect when added at any time during the first 8 days; expression of active β catenin (indicator of WNT activation) (active β catenin): significantly reduced |
| O=c1c(O)c(-c2cc(O)c(O)c(O)c2)oc2cc(O)cc(O)c12 [myricetin] | top hits |  |  |
| TGF-β1 ligand: excess TGF-β1 ligand added during reprogramming |  | partially inhibited the combined effect | effect on reprogramming enhanced by SB431542 (cardiac fibroblasts): reversed the effect of SB431542 |
| BMP4: regulates other aspects of TGF-β signaling (protein, UniProt P12644 293-408, looked up) Bone morphogenetic protein 4: SPKHHSQRARKKNKNCRRHSLYVDFSDVGWNDWIVAPPGYQAFYCHGDCPFPLADHLNSTNHAIVQTLVNSVNSSIPKACCVPTELSAISMLYLDEYDKVVLKNYQEMVVEGCGCR |  |  | effect on reprogramming enhanced by SB431542 (cardiac fibroblasts): did not significantly affect cardiac reprogramming |
| WNT3a: activates canonical WNT signaling (protein, UniProt P56704 19-352, looked up) Protein Wnt-3a: SYPIWWSLAVGPQYSSLGSQPILCASIPGLVPKQLRFCRNYVEIMPSVAEGIKIGIQECQHQFRGRRWNCTTVHDSLAIFGPVLDKATRESAFVHAIASAGVAFAVTRSCAEGTAAICGCSSRHQGSPGKGWKWGGCSEDIEFGGMVSREFADARENRPDARSAMNRHNNEAGRQAIASHMHLKCKCHGLSGSCEVKTCWWSQPDFRAIGDFLKDKYDSASEMVVEKHRESRGWVETLRPRYTYFKVPTERDLVYYEASPNFCEPNPETGSFGTRDRTCNVSSHGIDGCDLLCCGRGHNARAERRREKCRCVFHWCCYVSCQECTRVYDVHTCK |  | partially blocked the effects |  |
| WNT11: activates the non-canonical WNT pathway (protein, UniProt O96014 25-354, looked up) Protein Wnt-11: IKWLALSKTPSALALNQTQHCKQLEGLVSAQVQLCRSNLELMHTVVHAAREVMKACRRAFADMRWNCSSIELAPNYLLDLERGTRESAFVYALSAAAISHAIARACTSGDLPGCSCGPVPGEPPGPGNRWGGCADNLSYGLLMGAKFSDAPMKVKKTGSQANKLMRLHNSEVGRQALRASLEMKCKCHGVSGSCSIRTCWKGLQELQDVAADLKTRYLSATKVVHRPMGTRKHLVPKDLDIRPVKDSELVYLQSSPDFCMKNEKVGSHGTQDRQCNKTSNGSDSCDLMCCGRGYNPYTDRVVERCHCKYHWCCYVTCRRCERTVERYVCK |  | did not have a significant effect |  |

Reference: patent US20200297775A1, “ENHANCED DIRECT CARDIAC REPROGRAMMING” (The J. David Gladstone Institutes, A Testamentary Trust …, priority 2016, published 2020)
